{"source": "patent EP0393104B1", "about": "“MEASUREMENT OF PGE 2 (PROSTAGLANDIN E 2) LEVELS IN PATIENTS WITH CHRONIC INFLAMMATORY BOWEL DISEASE” (priority 1987, dated 1989)", "key": {"[1]": {"test_system": "ulcerative colitis and Crohn's colitis", "assay": "Open one-year dose-escalation study of ADS: efficacy, tolerance and safety", "assay_type": "in vivo, patients", "conditions": "for patients who experienced a relapse: remaining UC patients", "excerpt": "Patients fulfilling the following entry criteria were candidates for the study: (a) proven UC or proven CC; (b) relapsing disease (i.e., a relapse within the past six months) or chronic continous disease activity (i.e. absence of remission (definition: see below) for three months or more); (c) refractory to SAZ (i.e., relapsing disease despite maintenance treatment with SAZ 2 g/day or chronic continous disease despite treatment with glucocorticoids and SAZ) or intolerant of SAZ (i.e., allergic to or otherwise intolerant of SAZ).\nThe study design was open with an initial dose of ADS 1 g/day (0.5 g b.i.d.), in SAZ intolerant patients. In SAZ refractory patients the initial dose was 2 g/day (1 g b.i.d.). […] In patients on concomitant corticosteroids the dose was gradually tapered and, if possible, the administration was stopped.\n(§1) Aone year treatment period was planned including scheduled visits at two weeks and at two, four, six, eight, ten, and 12 months, in addition to in-between visits, if needed. Before entry and at each visit the clinical disease activity was assessed (see below) and a laboratory screening was done. This included blood haemoglobin, reticulocyte count, erythrocyte sedimentation rate, leucocyte count, leucocyte differential count, platelet count, serum concentrations of Na, K, Ca, albumin, creatinine, urea, alanine aminotransferase, lactate dehydrogenase, alkaline phosphatase, bilirubin, and plasma prothrombin, in addition to urine analysis for protein and glucose and microscopy for erythrocytes, leukocytes, and casts.\nThe clinical activity was based on a diary and the objective findings registered by the investigator. To minimize variation among observers each patient was examined on all study days by the same investigator. All days the week preceeding a scheduled visit the patient recorded the number of bowel movements in the diary, in addition to the presence or absence of blood, and graded abdominal pain and general well-being according to W. R. Best, J. M. Becktel, J. W. Singleton, 'Rederived values of the eight coefficients of the Crohn's Disease Activity Index (CDAI)', 1979 Gastroenterology, 77:843-6) for calculation of the Crohn's disease activity index (CDAI). […] Remission in patients with CC was defined as a CDAI <150 and no evidence of inflammation on sigmoidoscopy. […] Due to the open design of the study no further clinical or endoscopic estimations of efficacy were done."}, "[2]": {"test_system": "PGE2", "assay": "Equilibrium in vivo dialysis of faeces with radioimmunoassay of PGE2 (ADS study)", "design": "species or system patients", "conditions": "mean±SD", "procedure": "(§2) Before entry, at the two week's visit, and at the six and 12 months' visits equilibrium in vivo dialysis of faeces as well as equilibrium in vivo dialysis of rectum were done prior to endoscopy of rectum and sigmoid colon with biopsies. ADS was administered in gelatin capsules, each containing 250 mg of the powdered drug without additives.\n(§3) Equilibrium in vivo dialysis of faeces was done as previously described in detail by pooling the contents of five swallowed dialysis bags following their intestinal transit (faecal dialysate).\n(§4) The lower detection limits in serum and in faecal dialysates were 1.0 umol/I and 6.0 umol/l, respectively. Prostaglandin E2 was measured by the radioimmunologic method, referred to above, validated by gas chromatography-mass spectrometry. These measurements were done blindly and independently of the assessment of disease activity and clinicians were unaware of the results until the data had been completed."}, "[3]": {"test_system": "ulcerative colitis", "conditions": "human, in vivo, po; cited from earlier work"}, "[4]": {"test_system": "PGE2", "assay": "Equilibrium in vivo dialysis of rectum with radioimmunoassay of PGE2 (ADS study)", "design": "species or system patients", "conditions": "mean±SD", "procedure": "as §2\nEquilibrium in vivo dialysis of rectum was performed after insertion of a 12-cm-long dialysis bag into the emptied rectum as previously described (K. Lauritsen, L.S. Laursen, K. Bukhave, J. Rask-Madsen, \"Effects of topical 5-aminosalicylic acid and prednisolone on prostaglandin E2 and leukotriene B4 levels determined by equilibrium in vivo dialysis of rectum in relapsing ulcerative colitis, Gastroenterology 1986;91:837-844). The bag was left for four hours and its contents (rectal dialysate) were analyzed for concentrations of PGE2 (rectal PGEZ).\nas §4"}, "[5]": {"assay": "HPLC of ADS, 5-ASA and Ac-5-ASA in faecal dialysates (equilibrium in vivo dialysis of faeces)", "design": "species or system patients", "conditions": "for concentration: ulcerative colitis, read-out: Concentrations in faecal dialysates", "procedure": "as §2, §3, §4"}, "[6]": {"assay": "HPLC of ADS, 5-ASA and Ac-5-ASA in serum", "assay_type": "in vivo, patients", "conditions": "ulcerative colitis, read-out: Concentrations in serum", "procedure": "as §1, §4"}}, "data": [{"smiles": "O=C(O)c1cc(N=Nc2ccc(O)c(C(=O)O)c2)ccc1O", "note": "[Olsalazine, disodium-azodisalicylate]", "values": [{"measurement": "withdrawals due to drug intolerance", "setting": "[1]; 40 patients, ADS 1-4 g/day up to one year", "result": "No patients were withdrawn due to drug intolerance"}, {"measurement": "treatment failures", "setting": "[1]; UC patients intolerant of SAZ", "result": "one of eight"}, {"measurement": "treatment failures", "setting": "[1]; UC patients refractory to SAZ, of 23", "result": 12}, {"measurement": "slightly increased levels of alanine aminotransferase or alkaline phosphatase", "setting": "[1]; in vivo", "result": "six cases"}, {"measurement": "treatment failures (CDAI <150 without sigmoidoscopic evidence of inflammation never obtained)", "setting": "[1]; patients with CC", "result": "Five of the nine"}, {"measurement": "treatment failures (clinical and sigmoidoscopic remission never obtained)", "setting": "[1]; patients with UC (n=31)", "result": "Thirteen patients"}, {"measurement": "patients who experienced a relapse", "setting": "[1]; on 1 g/day", "result": "four"}, {"measurement": "patients who experienced a relapse", "setting": "[1]; on 2 g/day", "result": "two"}, {"measurement": "patients who experienced a relapse", "setting": "[1]; on 3 g/day", "result": "eight"}, {"measurement": "patients who experienced a relapse", "setting": "[1]; on 4 g/day", "result": "two"}, {"measurement": "Fecal PGE2 levels", "setting": "[2]; Crohn's colitis (n=9), Month 6, Entry 1.76±1.94", "result": "0.70±0.68 (0.08-1.81) ng/ml"}, {"measurement": "Fecal PGE2 levels", "setting": "[2]; Crohn's colitis (n=9), Month 12, Entry 1.76±1.94", "result": "1.23±2.06 (0.04-5.39) ng/ml"}, {"measurement": "Fecal PGE2 levels", "setting": "[2]; Ulcerative colitis, SAZ intolerant, n=8, Month 6, Entry 1.09±1.18", "result": "0.48±0.85 (0.04-2.55) ng/ml"}, {"measurement": "Fecal PGE2 levels", "setting": "[2]; Ulcerative colitis, SAZ intolerant, n=8, Month 12, Entry 1.09±1.18, p<0.05", "result": "0.16±0.05 (0.08-0.22) ng/ml"}, {"measurement": "Fecal PGE2 levels", "setting": "[2]; Ulcerative colitis, SAZ refractory, n=23, Month 6, Entry 1.65±1.80, normal range <0.5, p<0.05", "result": "0.44±1.03 (0.05-4.72) ng/ml"}, {"measurement": "Fecal PGE2 levels", "setting": "[2]; Ulcerative colitis, SAZ refractory, n=23, Month 12, Entry 1.65±1.80, p<0.05", "result": "0.77±1.09 (0.06-3.73) ng/ml"}, {"measurement": "loose or watery stools (major adverse effect)", "setting": "[3]", "result": 10, "unit": "%"}, {"measurement": "Rectal PGE2 levels", "setting": "[4]; Crohn's colitis (n=9), Month 6, Entry 4.0±5.1", "result": "5.0±4.8 (0.4-13.0) ng/ml"}, {"measurement": "Rectal PGE2 levels", "setting": "[4]; Crohn's colitis (n=9), Month 12, Entry 4.0±5.1", "result": "3.0±5.7 (0.1-14.6) ng/ml"}, {"measurement": "Rectal PGE2 levels", "setting": "[4]; Ulcerative colitis, SAZ intolerant, n=8, Month 6, Entry 8.5±15.0", "result": "5.7±11.9 (0.15-32.6) ng/ml"}, {"measurement": "Rectal PGE2 levels", "setting": "[4]; Ulcerative colitis, SAZ intolerant, n=8, Month 12, Entry 8.5±15.0", "result": "1.6±2.0 (0.32-5.3) ng/ml"}, {"measurement": "Rectal PGE2 levels", "setting": "[4]; Ulcerative colitis, SAZ refractory, n=23, Month 6, Entry 16.0±15.3, normal range <0.6, p<0.05", "result": "8.1±12.3 (0.05-42.8) ng/ml"}, {"measurement": "Rectal PGE2 levels", "setting": "[4]; Ulcerative colitis, SAZ refractory, n=23, Month 12, Entry 16.0±15.3", "result": "13.6±15.4 (0.12-49.0) ng/ml"}, {"measurement": "concentration", "setting": "[5]; Olsalazine dose/day 1 g (n=7), mean±SD of averages in each patient", "result": "100 ± 140", "unit": "µM"}, {"measurement": "concentration", "setting": "[5]; Olsalazine dose/day 2 g (n=20), mean±SD", "result": "340 ± 480", "unit": "µM"}, {"measurement": "concentration", "setting": "[5]; Olsalazine dose/day 3 g (n=14), mean±SD", "result": "400 ± 580", "unit": "µM"}, {"measurement": "concentration", "setting": "[5]; Olsalazine dose/day 4 g (n=18), mean±SD", "result": "270 ± 410", "unit": "µM"}, {"measurement": "patients in whom the split ratio was below 90%, at least on one occasion", "setting": "[5]; of all patients", "result": 28, "unit": "%"}, {"measurement": "concentration", "setting": "[6]; Olsalazine dose/day 1 g (n=9), mean±SD of average in each patient", "result": "9.2 ± 3.4", "unit": "µM"}, {"measurement": "concentration", "setting": "[6]; Olsalazine dose/day 2 g (n=14), mean±SD", "result": "16 ± 6.8", "unit": "µM"}, {"measurement": "concentration", "setting": "[6]; Olsalazine dose/day 3 g (n=20), mean±SD", "result": "22 ± 8.1", "unit": "µM"}, {"measurement": "concentration", "setting": "[6]; Olsalazine dose/day 4 g (n=20), mean±SD", "result": "25 ± 11", "unit": "µM"}]}]}
